This note sets out measurements from patent publication US9351955B2, “Compounds and pharmaceutical compositions thereof for the treatment of cystic fibrosis” (Galapagos NV, priority 2013, dated 2016).

What is called EC50 is the midpoint of the concentration-response curve.

Common to all, as to assay type: cell-based
For assay [1], the target named is T1, CFTR ΔF508 mutant (Homo sapiens, UniProt P13569, DEL508-508).
T1 construct: expressed in transfected cells; host or cells: CFBE41o- (adenoviral transduction)
The assay can be described thus: YFP-halide influx assay for the CFTR-ΔF508 mutation (96 well, CFBE41o- cells). The settings on record: compounds of the invention, 96 well, forskolin 10.67 μM, read-out: EC50 measured by YFP-halide influx assay for the CFTR-ΔF508. An outline of the steps: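 CFBE41o- cells were adenovirally transduced with CFTR ΔF508 and the halide-sensitive YFP H148Q/I152L. They were then corrected either at 27 °C for 24 h or with a CFTR modulator for 24 h at 37 °C. After iodide injection, YFP quenching over 7 s was expressed as 1−F/F0, and EC50 was derived from the concentration–response plot.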

The target of a further assay is T2, CFTR-G1349D (Homo sapiens, UniProt P13569, G1349D).
T2 construct: expressed in transfected cells
The assay is described as follows: YFP-halide influx assay for the CFTR-G1349D. The settings on record: CFTR-G1349D mutant; read-out: EC50 measured by YFP-halide influx assay for the CFTR-G1349D. From the text: (§1) The YFP halide influx assay measures the functionality of the cystic fibrosis Transmembrane Conductance regulator (CFTR) channels. The assay is used to evaluate the capacity of compounds to increase the channel opening of existing mutant CFTR channels in the membrane. It makes use of the observation that the yellow fluorescent protein (YFP) variant YFP H148Q, I152L, F47L has its fluorescence substantially quenched by halide ions like Cl^− and I^−. (Galietta et al., 2001)
(§2) For this purpose, HEK293-cells are seeded in 96 well plates. During seeding, the cells are reverse-transfected with plasmid vectors that direct the expression of the CFTR G551D mutant and of the YFP reporter. Cells are incubated at 37° C., 5% CO2 for 24 hours so as to allow for sufficient expression of the CFTR protein.
(§3) The I^−-induced quenching of fluorescence is recorded immediately after injection of I^− for 7 seconds. The capacity of a compound to increase the channel opening is directly correlated with the decrease in fluorescence, and is expressed as (1−(fluorescence after 7 seconds (F)/fluorescence before injection (F0))) and an EC50 can be derived from a (1−F/F0) vs compound concentration plot.
(§4) Similar YHA assays were developed for other channel gating defective or channel conductance defective CFTR mutants to determine effect of compound on channel activity. Examples of mutants are G178R, G1349D, S549N, R117H, R334W. This assay is also used for additional class I CFTR mutants, including G542X, W1282X; class II mutants including N1303K, and for class III mutants including S1251N; or wild-type CFTR.

In a further assay the target is T3, CFTR-G178R (Homo sapiens, UniProt P13569, G178R).
T3 construct: expressed in transfected cells
The assay can be described thus: YFP-halide influx assay for the CFTR-G178R. The conditions noted are these: read-out: EC50 measured by YFP-halide influx assay for the CFTR-G178R.
Source text: as §1, §2, §3, §4

The target in another assay is T4, CFTR G551D mutant (Homo sapiens, UniProt P13569, G551D).
T4 construct: expressed in transfected cells; host or cells: HEK293 (reverse transfection with plasmids)
The assay can be described thus: YFP-halide influx assay for the CFTR-G551D mutation (HEK293 cells). The conditions noted are these: HEK293 cells expressing CFTR G551D and YFP reporter; forskolin 10.67 μM; read-out: EC50 measured by YFP-halide influx assay for the CFTR-G551D. An outline of the steps: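 HEK293 cells reverse-transfected with CFTR G551D and halide-sensitive YFP, expressed 24 h at 37 °C. Iodide-induced fluorescence quench recorded for 7 s after I^− injection; response as 1−F/F0, EC50 from concentration plot.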

The target of a further assay is T5, CFTR-R117H (Homo sapiens, UniProt P13569, R117H).
T5 construct: expressed in transfected cells
The assay can be described thus: YFP-halide influx assay for the CFTR-R117H. The settings on record: CFTR-R117H mutant; read-out: EC50 measured by YFP-halide influx assay for the CFTR-R117H.
Source text: as §1, §2, §3, §4

In another assay the target is T6, CFTR-S549N (Homo sapiens, UniProt P13569, S549N).
T6 construct: expressed in transfected cells
The assay is described as follows: YFP-halide influx assay for the CFTR-S549N. The settings on record: CFTR-S549N mutant; read-out: EC50 measured by YFP-halide influx assay for the CFTR-S549N.
Source text: as §1, §2, §3, §4

Assay [2] deals with T1, CFTR ΔF508 mutant. The assay is described as follows: YFP-halide influx assay for the CFTR-ΔF508 mutation (384 well, CFBE41o- cells, FDSS/μCell). The conditions noted are these: forskolin 10.67 μM, fluorescence after 36 seconds, read-out: EC50 measured by YFP-halide influx assay for the CFTR-ΔF508. An outline of the steps: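 CFBE41o- cells were adenovirally transduced with ΔF508 CFTR and the YFP H148Q/I152L reporter. Cells were then held 24 h at 27 °C or treated 24 h at 37 °C with a CFTR modulator. Iodide-induced quench was recorded for 2 min, and EC50 was derived from 1−F/F0 at 36 s against compound concentration.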

T5 sequence (P13569 whole entry R117H): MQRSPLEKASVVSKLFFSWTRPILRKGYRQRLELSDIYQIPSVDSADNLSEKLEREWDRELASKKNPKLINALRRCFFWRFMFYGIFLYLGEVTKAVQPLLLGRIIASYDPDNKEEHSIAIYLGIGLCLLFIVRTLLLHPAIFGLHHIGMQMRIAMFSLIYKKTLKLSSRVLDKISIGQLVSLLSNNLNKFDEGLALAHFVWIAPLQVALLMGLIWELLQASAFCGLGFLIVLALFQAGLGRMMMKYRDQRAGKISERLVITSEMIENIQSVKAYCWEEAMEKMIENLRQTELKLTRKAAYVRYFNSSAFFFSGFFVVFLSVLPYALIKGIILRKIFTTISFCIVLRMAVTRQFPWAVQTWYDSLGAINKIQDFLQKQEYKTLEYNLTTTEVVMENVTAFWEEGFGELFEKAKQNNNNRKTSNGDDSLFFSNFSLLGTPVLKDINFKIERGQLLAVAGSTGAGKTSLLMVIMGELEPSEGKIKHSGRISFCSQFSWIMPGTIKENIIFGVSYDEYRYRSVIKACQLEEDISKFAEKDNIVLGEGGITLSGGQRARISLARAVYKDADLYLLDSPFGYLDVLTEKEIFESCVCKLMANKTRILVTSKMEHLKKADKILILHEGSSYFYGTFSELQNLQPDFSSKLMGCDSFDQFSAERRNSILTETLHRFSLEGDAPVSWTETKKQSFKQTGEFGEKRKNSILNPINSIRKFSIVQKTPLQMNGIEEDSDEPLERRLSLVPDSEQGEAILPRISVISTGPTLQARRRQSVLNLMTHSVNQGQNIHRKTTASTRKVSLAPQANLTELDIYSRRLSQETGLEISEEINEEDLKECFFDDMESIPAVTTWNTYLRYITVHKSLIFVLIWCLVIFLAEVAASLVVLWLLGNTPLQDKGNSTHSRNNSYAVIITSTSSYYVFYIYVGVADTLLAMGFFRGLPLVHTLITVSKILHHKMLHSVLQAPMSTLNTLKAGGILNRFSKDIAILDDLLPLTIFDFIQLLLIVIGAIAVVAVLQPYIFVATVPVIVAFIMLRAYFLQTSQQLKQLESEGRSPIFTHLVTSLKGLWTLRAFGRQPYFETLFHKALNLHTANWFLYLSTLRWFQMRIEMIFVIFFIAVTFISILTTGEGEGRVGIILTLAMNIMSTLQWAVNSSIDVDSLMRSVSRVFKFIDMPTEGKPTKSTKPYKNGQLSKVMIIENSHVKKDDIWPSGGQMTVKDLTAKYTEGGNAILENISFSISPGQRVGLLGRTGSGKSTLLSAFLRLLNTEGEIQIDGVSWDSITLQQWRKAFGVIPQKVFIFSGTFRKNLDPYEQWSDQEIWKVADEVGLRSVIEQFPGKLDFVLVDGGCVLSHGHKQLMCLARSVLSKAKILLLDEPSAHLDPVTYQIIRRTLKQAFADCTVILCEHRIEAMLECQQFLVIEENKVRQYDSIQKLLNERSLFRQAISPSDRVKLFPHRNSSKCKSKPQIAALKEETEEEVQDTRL
T1 sequence (P13569 with tags, fused parts or gaps DEL508-508): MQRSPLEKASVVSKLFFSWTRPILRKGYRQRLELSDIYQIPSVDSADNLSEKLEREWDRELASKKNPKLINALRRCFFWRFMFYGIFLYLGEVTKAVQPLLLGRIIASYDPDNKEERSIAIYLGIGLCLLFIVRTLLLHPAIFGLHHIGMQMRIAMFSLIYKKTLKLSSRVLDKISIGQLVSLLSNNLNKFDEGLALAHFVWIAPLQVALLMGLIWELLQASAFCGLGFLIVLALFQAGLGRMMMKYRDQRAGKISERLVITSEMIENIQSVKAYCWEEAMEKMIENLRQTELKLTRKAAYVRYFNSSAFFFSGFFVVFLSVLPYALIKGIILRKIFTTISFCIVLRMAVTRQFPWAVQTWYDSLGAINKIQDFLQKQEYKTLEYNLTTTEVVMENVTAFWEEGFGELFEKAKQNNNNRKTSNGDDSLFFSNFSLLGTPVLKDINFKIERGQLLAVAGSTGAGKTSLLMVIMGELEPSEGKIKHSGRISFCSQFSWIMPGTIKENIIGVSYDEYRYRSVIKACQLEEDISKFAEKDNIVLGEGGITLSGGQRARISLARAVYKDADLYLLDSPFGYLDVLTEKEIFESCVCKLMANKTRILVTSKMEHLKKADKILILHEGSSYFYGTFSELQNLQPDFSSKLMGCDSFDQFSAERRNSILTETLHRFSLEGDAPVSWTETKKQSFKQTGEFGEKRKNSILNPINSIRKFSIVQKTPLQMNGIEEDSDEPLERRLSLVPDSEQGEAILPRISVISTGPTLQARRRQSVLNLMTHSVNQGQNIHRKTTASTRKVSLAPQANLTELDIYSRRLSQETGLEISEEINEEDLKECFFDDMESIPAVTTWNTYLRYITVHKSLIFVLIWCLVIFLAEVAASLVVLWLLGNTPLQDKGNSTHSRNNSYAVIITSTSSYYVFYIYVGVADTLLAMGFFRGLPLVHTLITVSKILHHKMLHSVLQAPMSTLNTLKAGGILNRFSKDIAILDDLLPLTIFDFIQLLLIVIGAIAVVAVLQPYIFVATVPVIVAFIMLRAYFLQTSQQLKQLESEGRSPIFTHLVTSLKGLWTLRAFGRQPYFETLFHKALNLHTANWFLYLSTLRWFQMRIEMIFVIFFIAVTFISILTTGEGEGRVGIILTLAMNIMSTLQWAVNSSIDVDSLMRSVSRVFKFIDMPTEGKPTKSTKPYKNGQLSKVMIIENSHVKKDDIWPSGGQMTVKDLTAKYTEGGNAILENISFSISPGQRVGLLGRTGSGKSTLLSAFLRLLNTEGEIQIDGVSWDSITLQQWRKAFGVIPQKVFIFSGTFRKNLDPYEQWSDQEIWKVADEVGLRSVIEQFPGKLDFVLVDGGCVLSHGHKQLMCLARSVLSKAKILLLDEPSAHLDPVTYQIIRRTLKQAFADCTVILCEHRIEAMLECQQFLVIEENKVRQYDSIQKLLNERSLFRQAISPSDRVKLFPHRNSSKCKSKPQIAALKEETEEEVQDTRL
T4 sequence (P13569 whole entry G551D): as the sequence (P13569 whole entry R117H) above, with H117R, G551D counted along it
T2 sequence (P13569 whole entry G1349D): as the sequence (P13569 whole entry R117H) above, with H117R, G1349D counted along it
T3 sequence (P13569 whole entry G178R): as the sequence (P13569 whole entry R117H) above, with H117R, G178R counted along it
T6 sequence (P13569 whole entry S549N): as the sequence (P13569 whole entry R117H) above, with H117R, S549N counted along it

`CC1(C)Cc2c(sc(NC(=O)c3cc(C4CC4)[nH]n3)c2C(N)=O)C(C)(C)O1` [Compound 13, N-(3-carbamoyl-5,5,7,7-tetramethyl-5,7-dihydro-4H-thieno[2,3-c]pyran-2-yl)-5-cyclopropyl-1H-pyrazole-3-carboxamide]: the EC50 on CFTR ΔF508 mutant [1] worked out at 17.9 nM; on CFTR-G1349D, 75.3 nM; on CFTR-G178R, 98.8 nM; on CFTR G551D mutant it was 198 nM; on CFTR-R117H, 177 nM; at CFTR-S549N it was 158 nM. Also, the EC50 on CFTR ΔF508 mutant [2] was 6.13 nM.

For the compound `CC(C)c1cc(C(=O)Nc2sc3c(c2C(N)=O)CC(C)(C)OC3(C)C)n[nH]1` [Compound 14, N-(3-carbamoyl-5,5,7,7-tetramethyl-5,7-dihydro-4H-thieno[2,3-c]pyran-2-yl)-5-isopropyl-1H-pyrazole-3-carboxamide], the EC50 on CFTR ΔF508 mutant [1] came to 32.2 nM; at CFTR-G1349D, 371 nM; on CFTR-G178R it was 169 nM; on CFTR G551D mutant, 377 nM; at CFTR-R117H it was 207 nM; at CFTR-S549N, 253 nM. Besides, at CFTR ΔF508 mutant [2], the EC50 came to 9.44 nM.

For the compound `CC1(C)Cc2c(sc(NC(=O)c3cc(C(F)(F)F)[nH]n3)c2C(N)=O)C(C)(C)O1` [Compound 15, N-(3-carbamoyl-5,5,7,7-tetramethyl-5,7-dihydro-4H-thieno[2,3-c]pyran-2-yl)-5-(trifluoromethyl)-1H-pyrazole-3-carboxamide], the EC50 at CFTR ΔF508 mutant [1] is 7.56 nM; on CFTR-G1349D, 75.3 nM; on CFTR-G178R, 87.5 nM; at CFTR G551D mutant it was 77.5 nM; at CFTR-R117H, 158 nM; at CFTR-S549N, 208 nM. In addition, the EC50 at CFTR ΔF508 mutant [2] amounted to 2.72 nM.

Turning to `CC1(C)Cc2c(sc(NC(=O)c3n[nH]cc3Br)c2C(N)=O)C(C)(C)O1` [Compound 33, 4-bromo-N-(3-carbamoyl-5,5,7,7-tetramethyl-5,7-dihydro-4H-thieno[2,3-c]pyran-2-yl)-1H-pyrazole-3-carboxamide], the EC50 on CFTR ΔF508 mutant [1] was 4 nM; at CFTR-G1349D, 116 nM; at CFTR-G178R, 88.6 nM; at CFTR G551D mutant it was 92 nM; on CFTR-R117H, 165 nM; at CFTR-S549N it was 164 nM. Besides, on CFTR ΔF508 mutant [2], the concentration for a half-maximal effect (EC50) turned out to be 6.93 nM.

Consider `Cc1[nH]nc(C(=O)Nc2sc3c(c2C(N)=O)CC(C)(C)OC3(C)C)c1Cl` [Compound 34, N-(3-carbamoyl-5,5,7,7-tetramethyl-5,7-dihydro-4H-thieno[2,3-c]pyran-2-yl)-4-chloro-5-methyl-1H-pyrazole-3-carboxamide], for which the EC50 on CFTR ΔF508 mutant [1] is 10 nM; at CFTR-G1349D it was 47.4 nM; at CFTR-G178R, 42.2 nM; at CFTR G551D mutant, 270 nM; on CFTR-R117H, 301 nM; on CFTR-S549N, 444 nM. The EC50 at CFTR ΔF508 mutant [2] amounted to 10.1 nM.

For `CC1(C)Cc2c(sc(NC(=O)C(O)C(C)(C)C)c2C(N)=O)C(C)(C)O1` (centres unmarked) [Compound 38, 2-(2-hydroxy-3,3-dimethylbutanamido)-5,5,7,7-tetramethyl-5,7-dihydro-4H-thieno[2,3-c]pyran-3-carboxamide], the EC50 at CFTR ΔF508 mutant [1] is 5 nM; at CFTR-G1349D, 517 nM; at CFTR-G178R it was 96.8 nM; on CFTR-R117H it was 64.3 nM; at CFTR-S549N, 690 nM; at CFTR ΔF508 mutant [2], 5.99 nM.

Consider `CC(C)C(O)C(=O)Nc1sc2c(c1C(N)=O)CC(C)(C)OC2(C)C` (centres unmarked) [Compound 39, 2-(2-hydroxy-3-methylbutanamido)-5,5,7,7-tetramethyl-5,7-dihydro-4H-thieno[2,3-c]pyran-3-carboxamide], for which the EC50 on CFTR ΔF508 mutant [1] came out at 6 nM; on CFTR-G1349D, 1340 nM; at CFTR-G178R, 1360 nM; on CFTR-R117H, 145 nM; at CFTR-S549N, 1100 nM; at CFTR ΔF508 mutant [2], 4.51 nM.

For the compound `CC1(C)Cc2c(sc(NC(=O)C3(CO)CCC3)c2C(N)=O)C(C)(C)O1` [Compound 40, 2-(1-(hydroxymethyl)cyclobutanecarboxamido)-5,5,7,7-tetramethyl-5,7-dihydro-4H-thieno[2,3-c]pyran-3-carboxamide], the EC50 on CFTR ΔF508 mutant [1] is 32 nM; at CFTR-G1349D, 1910 nM; on CFTR-G178R it was more than 3330 nM; on CFTR-R117H, 2900 nM; at CFTR-S549N, 1930 nM; at CFTR ΔF508 mutant [2], 35.6 nM.

`COCc1cc(C(=O)Nc2sc3c(c2C(N)=O)CC(C)(C)OC3(C)C)n[nH]1` [Compound 42, N-(3-carbamoyl-5,5,7,7-tetramethyl-5,7-dihydro-4H-thieno[2,3-c]pyran-2-yl)-5-(methoxymethyl)-1H-pyrazole-3-carboxamide]: the EC50 on CFTR ΔF508 mutant [1] was found to be 12.2 nM; at CFTR-G1349D it was 678 nM; on CFTR-G178R, 156 nM; at CFTR-R117H it was 193 nM; on CFTR-S549N it was 508 nM; at CFTR ΔF508 mutant [2], 15.3 nM.

`CC1(C)Cc2c(sc(NC(=O)c3ccnn3CC(F)(F)F)c2C(N)=O)C(C)(C)O1` [Compound 151, N-(3-carbamoyl-5,5,7,7-tetramethyl-4H-thieno[2,3-c]pyran-2-yl)-2-(2,2,2-trifluoroethyl)pyrazole-3-carboxamide]: the EC50 at CFTR-G1349D amounted to 464 nM; on CFTR-G178R it was 221 nM; on CFTR G551D mutant, 971 nM; on CFTR-R117H, 780 nM; at CFTR-S549N, 3330 nM; on CFTR ΔF508 mutant [2] it was 20.1 nM.
